The values that follow come from patent publication US5641780A, “Pyrrolo-indole derivatives” (priority 1994, dated 1997).

Structures are written as SMILES.

For one data set, the system named is Sarcoma 180 tumor. As to the kind of experiment: Therapeutic Effect on Sarcoma 180 Tumor. Conditions: Mus musculus, Sarcoma-180, iv, 168 h, read-out: T/C (average tumor volume treated / control), dose 2.0 mg/kg, intravenous, one day after implantation; determined seven days after implantation. The data set is classed as in vivo, male ddY-strain mice. On the procedure: Five male ddY-strain mice each weighing 18-20 g were used for each group as test animals, and 5×10^5 Sarcoma 180 tumor cells were implantedat the axilla subcutaneously. One day after the implantation, 0.2 ml of a physiological saline containing Compound (I) at the concentration shown in Table 3 was intravenously administered to each mouse. T/C [T: average tumor volume (mm^3) of the group treated with the test compound, C: average tumor volume (mm^3) of the control group (to which 0.2 ml of a physiological saline was intravenously administered)] was determined seven days after the implantation.
Take `CCN(CC)c1ccc(C(=O)Oc2cc3c(c4c(C(=O)OC)c(C)[nH]c24)C(CBr)CN3C(=O)/C=C/c2ccc(OC)cc2)cc1` (stereo not drawn) [Compound 25]: the response vs control in vivo at 2 mg/kg is 14%.
In the case of `COC(=O)c1c(C)[nH]c2c(OC(=O)c3ccc(-n4cccc4)cc3)cc3c(c12)C(CBr)CN3C(=O)/C=C/c1ccc(OC)cc1` (stereo not drawn) [Compound 26], the response vs control in vivo at 2 mg/kg was determined as 15%.
In the case of `COC(=O)c1c(C)[nH]c2c(OC(=O)c3ccc(CN4CCN(C)CC4)cc3)cc3c(c12)C(CBr)CN3C(=O)/C=C/c1ccc(OC)cc1` (stereo not drawn) [Compound 28], the response vs control in vivo at 2 mg/kg was determined as 21%.
Still for that read-out and setting: in the case of `COC(=O)c1c(C)[nH]c2c(OC(=O)N(C)N)cc3c(c12)C(CBr)CN3C(=O)/C=C/c1ccc(OC)cc1` (stereo not drawn) [Compound 30] it was 22%.
Same read-out and setting: in the case of `COC(=O)c1c(C)[nH]c2c(OC(=O)CSCC(=O)O)cc3c(c12)C(CBr)CN3C(=O)/C=C/c1ccc(OC)cc1` (stereo not drawn) [Compound 33] it was 17%.

The same data set, now with this note: Mus musculus, Sarcoma-180, iv, 168 h, read-out: T/C (average tumor volume treated / control), dose 4.0 mg/kg, intravenous, one day after implantation; determined seven days after implantation.
Turning to `COC(=O)c1c(C)[nH]c2c(OC(C)=O)cc3c(c12)C(CBr)CN3C(=O)/C=C/c1ccc(OC)cc1` (stereo not drawn) [Compound 14], the response vs control in vivo at 4 mg/kg was 22%.
Take `COC(=O)c1c(C)[nH]c2c(OC(=O)NN3CCN(C)CC3)cc3c(c12)C(CBr)CN3C(=O)/C=C/c1ccc(OC)cc1` (stereo not drawn) [Compound 19]: the response vs control in vivo at 4 mg/kg was 26%.

Staying with this data set, now noted: Mus musculus, Sarcoma-180, iv, 168 h, read-out: T/C (average tumor volume treated / control), dose 8.0 mg/kg, intravenous, one day after implantation; determined seven days after implantation.
On to `COC(=O)c1c(C)[nH]c2c(OC(=O)NN3CCN(C)CC3)cc3c(c12)C(CBr)CN3C(=O)/C=C/c1ccc(OC)cc1` (stereo not drawn) [Compound 18], for which the response vs control in vivo at 8 mg/kg was 18%.
The same measure, in the same setting: in the case of `COC(=O)c1c(C)[nH]c2c(OC(=O)NN3CCC(N4CCCCC4)CC3)cc3c(c12)C(CBr)CN3C(=O)/C=C/c1ccc(OC)cc1` (stereo not drawn) [Compound 32] it was 10%.

Another data set concerns ddY-strain male mice. As to the kind of experiment: Acute toxicity (minimum lethal dose). Conditions: intravenous, mortality at 14 days after administration. Format: in vivo. The method, then:
Compound (I) was intravenously administered to ddY-strain male mice each weighing 20±1 g. MLD (minimum lethal dose) was determined by observing the mortality at 14 days after administration.
Regarding `COC(=O)c1c(C)[nH]c2c(OC(C)=O)cc3c(c12)C(CBr)CN3C(=O)/C=C/c1ccc(OC)cc1` (stereo not drawn) [Compound 14], the “MLD (minimum lethal dose)” value was determined as 2.0 mg/kg.
Take `COC(=O)c1c(C)[nH]c2c(OC(=O)NN3CCN(C)CC3)cc3c(c12)C(CBr)CN3C(=O)/C=C/c1ccc(OC)cc1` (stereo not drawn) [Compound 19]: the “MLD (minimum lethal dose)” value is given as greater than 8.0 mg/kg.
In the case of `CCN(CC)c1ccc(C(=O)Oc2cc3c(c4c(C(=O)OC)c(C)[nH]c24)C(CBr)CN3C(=O)/C=C/c2ccc(OC)cc2)cc1` (stereo not drawn) [Compound 25], the “MLD (minimum lethal dose)” value stood at 2.0 mg/kg.
On the same count and under the same terms, in the case of `COC(=O)c1c(C)[nH]c2c(OC(=O)c3ccc(-n4cccc4)cc3)cc3c(c12)C(CBr)CN3C(=O)/C=C/c1ccc(OC)cc1` (stereo not drawn) [Compound 26] it was 2.0 mg/kg.
Turning to `COC(=O)c1c(C)[nH]c2c(OC(=O)c3ccc(CN4CCN(C)CC4)cc3)cc3c(c12)C(CBr)CN3C(=O)/C=C/c1ccc(OC)cc1` (stereo not drawn) [Compound 28], the “MLD (minimum lethal dose)” value is recorded as 2.0 mg/kg.
On to `COC(=O)c1c(C)[nH]c2c(OC(=O)N(C)N)cc3c(c12)C(CBr)CN3C(=O)/C=C/c1ccc(OC)cc1` (stereo not drawn) [Compound 30], for which the “MLD (minimum lethal dose)” value worked out at 2.0 mg/kg.
On the same count and under the same terms, in the case of `COC(=O)c1c(C)[nH]c2c(OC(=O)NN3CCC(N4CCCCC4)CC3)cc3c(c12)C(CBr)CN3C(=O)/C=C/c1ccc(OC)cc1` (stereo not drawn) [Compound 32] it was greater than 8.0 mg/kg; in that of `COC(=O)c1c(C)[nH]c2c(OC(=O)CSCC(=O)O)cc3c(c12)C(CBr)CN3C(=O)/C=C/c1ccc(OC)cc1` (stereo not drawn) [Compound 33], 2.0 mg/kg.
Consider `COC(=O)c1c(C)[nH]c2c(OC(=O)CN3CCN(C)CC3)cc3c(c12)C(CBr)CN3C(=O)/C=C/c1ccc(OC)cc1` (stereo not drawn) [Compound 39], for which the “MLD (minimum lethal dose)” value is 4.0 mg/kg.
On the same count and under the same terms, in the case of `COC(=O)c1c(C)[nH]c2c(OC(=O)CN3CCC(N4CCCCC4)CC3)cc3c(c12)C(CBr)CN3C(=O)/C=C/c1ccc(OC)cc1` (stereo not drawn) [Compound 40] it was 2.0 mg/kg.

A further data set relates to HeLaS3 cells. Put plainly: Growth Inhibitory Effect Against HeLaS3 cells. Conditions: Homo sapiens, HeLa S3, 72 h, read-out: IC50, growth inhibition of HeLaS3 cells, 72 hours, 37° C., cell counter. Format: cell-based. On the procedure:
HeLaS3 cells were suspended in MEM medium containing 10% fetal calf serum and 2 mM glutamine to a concentration of 2.67×10^4 cells/ml. The cell suspension thus prepared was put into wells of a 24-well culture plate in an amount of 0.75 ml per well. After the cells were incubated in a CO2 incubator overnight at 37° C., Compound (I) which had been appropriately diluted with a culture medium was added to each well in an amount of 0.25 ml.
The cells were further incubated in the CO2 incubator for 72 hours, and the culture supernatant was removed. Then, the cells were dispersed in a solution of trypsin and EDTA, and recovered. The number of the cells was counted using a cell counter. The concentration of Compound (I) at which the growth of the cells is inhibited by 50% was calculated by comparing the number of untreated cells with the number of the cells treated with Compound (I) at known concentrations, and the value was defined as IC50.
A word on the IC50: it is the concentration that inhibits the measured activity by half. Take `COC(=O)c1c(C)[nH]c2c(OC(C)=O)cc3c(c12)C(CBr)CN3C(=O)/C=C/c1ccc(OC)cc1` (stereo not drawn) [Compound 14]: the IC50 was 0.31 nM.
On the same count and under the same terms, in the case of `COC(=O)c1c(C)[nH]c2c(OC(=O)NN3CCN(C)CC3)cc3c(c12)C(CBr)CN3C(=O)/C=C/c1ccc(OC)cc1` (stereo not drawn) [Compound 18] it was 0.54 nM; in that of `CCN(CC)c1ccc(C(=O)Oc2cc3c(c4c(C(=O)OC)c(C)[nH]c24)C(CBr)CN3C(=O)/C=C/c2ccc(OC)cc2)cc1` (stereo not drawn) [Compound 25], 13 nM.
On to `COC(=O)c1c(C)[nH]c2c(OC(=O)c3ccc(-n4cccc4)cc3)cc3c(c12)C(CBr)CN3C(=O)/C=C/c1ccc(OC)cc1` (stereo not drawn) [Compound 26], for which the concentration for half-maximal inhibition (IC50) turned out to be 1.7 nM.
In the case of `COC(=O)c1c(C)[nH]c2c(OC(=O)c3ccc(CN4CCN(C)CC4)cc3)cc3c(c12)C(CBr)CN3C(=O)/C=C/c1ccc(OC)cc1` (stereo not drawn) [Compound 28], the IC50 stood at 0.83 nM.
Take `COC(=O)c1c(C)[nH]c2c(OC(=O)N(C)N)cc3c(c12)C(CBr)CN3C(=O)/C=C/c1ccc(OC)cc1` (stereo not drawn) [Compound 30]: the half-maximal inhibitory concentration (IC50) came to 0.94 nM.
As for `COC(=O)c1c(C)[nH]c2c(OC(=O)NN3CCC(N4CCCCC4)CC3)cc3c(c12)C(CBr)CN3C(=O)/C=C/c1ccc(OC)cc1` (stereo not drawn) [Compound 32], the 50% inhibitory concentration (IC50) was found to be 0.8 nM.
On the same count and under the same terms, in the case of `COC(=O)c1c(C)[nH]c2c(OC(=O)CSCC(=O)O)cc3c(c12)C(CBr)CN3C(=O)/C=C/c1ccc(OC)cc1` (stereo not drawn) [Compound 33] it was 0.33 nM.
Still for that read-out and setting: in the case of `COC(=O)c1c(C)[nH]c2c(OC(=O)CN3CCN(C)CC3)cc3c(c12)C(CBr)CN3C(=O)/C=C/c1ccc(OC)cc1` (stereo not drawn) [Compound 39] it was 0.36 nM; in that of `COC(=O)c1c(C)[nH]c2c(OC(=O)CN3CCC(N4CCCCC4)CC3)cc3c(c12)C(CBr)CN3C(=O)/C=C/c1ccc(OC)cc1` (stereo not drawn) [Compound 40], 0.29 nM.

Staying with this data set, now noted: Homo sapiens, HeLa S3; 72 hours, 37° C., cell counter; read-out: IC50, growth inhibition of HeLaS3 cells.
Turning to `COC(=O)c1c(C)[nH]c2c(OC(=O)NN3CCOCC3)cc3c(c12)C(CBr)CN3C(=O)/C=C/c1ccc(OC)cc1` (stereo not drawn) [Compound 20], the concentration for half-maximal inhibition (IC50) came out at 6.7 nM.
Turning to `COC(=O)c1c(C)[nH]c2c(OC(=O)c3nccnc3N)cc3c(c12)C(CBr)CN3C(=O)/C=C/c1ccc(OC)cc1` (stereo not drawn) [Compound 21], the half-inhibitory concentration (IC50) is 0.38 nM.
Turning to `COC(=O)c1c(C)[nH]c2c(OC(=O)c3ccc(N)c(N)c3)cc3c(c12)C(CBr)CN3C(=O)/C=C/c1ccc(OC)cc1` (stereo not drawn) [Compound 22], the IC50 turned out to be 2.7 nM.

The data set is the same for the next values; noted with them: read-out: IC50, growth inhibition of HeLaS3 cells; 72 hours, 37° C., cell counter.
As to `COC(=O)c1c(C)[nH]c2c(OC(=O)NN3CCN(C)CC3)cc3c(c12)C(CBr)CN3C(=O)/C=C/c1ccc(OC)cc1` (stereo not drawn) [Compound 19], the IC50 was determined as 0.53 nM.
